Results: ChEMBL document CHEMBL1201862, “PubChem BioAssay data set” (2004)
Where “and” joins values, the source holds several entries; their conditions need not be identical. Equal values may be shown once.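 Step 1: Grow cells in 96-well plates. Step 2: Expose to compound for 48 hours at 5 concentrations. Step 3: Interpolate endpoints linearly; if unreached, use highest concentration. The concentration for 50% growth inhibition is given as GI50.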 Calls of active or inactive are those of the source. No stated cut-off is given here; in the data, active = GI50 up to about 1.1 µM and inactive = higher.

Legend:
Experiment in all cases: NCI tumour cell line growth inhibition, 48 h
SNB-78 = tested on: SNB-78
LXFL 529 = tested on: LXFL 529
RXF 631 = tested on: RXF 631
DMS-273 = tested on: DMS-273
KM-20L2 = tested on: KM-20L2
HOP-18 = tested on: HOP-18
M19-MEL = tested on: M19-MEL
XF498 = tested on: XF498
DMS-114 = tested on: DMS-114

Row | Compound | GI50 (SNB-78) | GI50 (LXFL 529) | GI50 (RXF 631) | GI50 (DMS-273) | GI50 (KM-20L2) | GI50 (HOP-18) | GI50 (M19-MEL) | GI50 (XF498) | GI50 (DMS-114)
1 | CC(C)O/C=C1\C(=O)C2(SCCS2)[C@H]2CCCC[C@@H]12 | 49 µM (inactive) | 33.7 µM (inactive) | 52.8 µM (inactive) | 37.2 µM (inactive) | 39.5 µM (inactive) | 44.6 µM (inactive) | 71 µM (inactive) |  | 
2 | CCOC(=O)COc1cccc2occc(=O)c12 | > 100 µM (inactive) | > 100 µM (inactive) |  | > 100 µM (inactive) | > 100 µM (inactive) |  | > 100 µM (inactive) | > 100 µM (inactive) | > 100 µM (inactive)
3 | CC1=NN(C(=O)Nc2ccccc2)C(=O)C2CCC(=O)N12 (stereo not drawn) | > 100 µM (inactive) | > 100 µM (inactive) | > 100 µM (inactive) | > 100 µM (inactive) | > 100 µM (inactive) |  | > 100 µM (inactive) | > 100 µM (inactive) | > 100 µM (inactive)
4 | CCCCCCCCCCCCCCCCCCOCC(COCCOCC[N+]1(CCCCCC(=O)[O-])CCCC1)Oc1ncccn1 (stereo not drawn) | 2.56 µM (inactive) |  |  | 0.37 µM (active) | 1.4 µM (inactive) | 4.85 µM (inactive) | 0.7 µM (active) | 2.1 µM (inactive) | 1.21 µM (inactive)
5 | Cc1ccc(S(=O)(=O)SC/C=C\CSS(=O)(=O)c2ccc(C)cc2)cc1 | 25.9 µM (inactive) and 27.2 µM (inactive) |  |  |  | 23.2 µM (inactive) and 23.3 µM (inactive) |  | 35.3 µM (inactive) and 44.6 µM (inactive) | 38.5 µM (inactive) and 23.4 µM (inactive) | 
6 | c1ccc(SC(Sc2ccccc2)=C2CCC2)cc1 | > 100 µM (inactive) |  | > 100 µM (inactive) | > 100 µM (inactive) | > 100 µM (inactive) |  | > 100 µM (inactive) | 49.8 µM (inactive) | > 100 µM (inactive)
7 | CCC(C)(C)n1c(C)nc2c1C(=O)c1ccccc1C2=O | 46.5 µM (inactive) | 13.9 µM (inactive) |  | 11.8 µM (inactive) | 38.6 µM (inactive) |  | 15.7 µM (inactive) | 16.8 µM (inactive) | 
8 | Cc1nc2sccn2c1C(=O)NN |  | > 100 µM (inactive) | > 100 µM (inactive) | > 100 µM (inactive) | > 100 µM (inactive) | 21.6 µM (inactive) | > 100 µM (inactive) | > 100 µM (inactive) | > 100 µM (inactive)
9 | Cn1cnc([N+](=O)[O-])c1Sc1nnnn1C | 12.7 µM (inactive) | 12.1 µM (inactive) |  | 17.7 µM (inactive) |  | 9.86 µM (inactive) | 15.7 µM (inactive) | 15.6 µM (inactive) | 17 µM (inactive)
10 | C/C(=N/O)c1ccc2c(c1)/C(=N/O)c1cc(/C(C)=N/O)ccc1-2 | 17.5 µM (inactive) | 14.3 µM (inactive) |  | 23.8 µM (inactive) | 17.4 µM (inactive) | 14.1 µM (inactive) | 19.4 µM (inactive) | 21.8 µM (inactive) | 22.4 µM (inactive)
11 | COc1ccc(NC(=O)CC/C(CC(=O)c2ccccc2Cl)=N\Nc2nnc(C)n2N)cc1 | > 100 µM (inactive) | > 100 µM (inactive) | > 100 µM (inactive) | > 100 µM (inactive) | > 100 µM (inactive) | > 100 µM (inactive) | > 100 µM (inactive) |  | > 100 µM (inactive)
12 | COc1ccc(C(=O)C(c2ccc(OC)cc2)C2(O)C(=O)Nc3c(C)cc(Cl)cc32)cc1 (stereo not drawn) | > 100 µM (inactive) | 37.7 µM (inactive) | 59 µM (inactive) | 58.9 µM (inactive) | > 100 µM (inactive) |  | 20.8 µM (inactive) |  | 
